Measured values from ChEMBL document CHEMBL1201862, “PubChem BioAssay data set” (2004).
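In this assay, cells in 96-well plates receive the compound at five concentrations for 48 hours. Endpoints are linearly interpolated between the surrounding concentrations. GI50: concentration for 50% inhibition of growth.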 Calls of active or inactive are those of the source. Cut-off read from the data, not from the text of the source: active = GI50 up to about 1.1 µM and inactive = higher.

Tests used:
Assay in all cases: inhibition of tumour cell growth, NCI panel, 48 h
786-0 = test system: 786-0
A498 = test system: A498
A549 = test system: A549
CAKI-1 = test system: CAKI-1
EKVX = test system: EKVX
HOP-92 = test system: HOP-92
MDA-MB-231 = test system: MDA-MB-231
NCI-H460 = test system: NCI-H460
NCI-H522 = test system: NCI-H522
OVCAR-4 = test system: OVCAR-4
RXF 393 = test system: RXF 393
SF-539 = test system: SF-539
SK-MEL-5 = test system: SK-MEL-5
SK-OV-3 = test system: SK-OV-3
SN12C = test system: SN12C
TK-10 = test system: TK-10
UACC-257 = test system: UACC-257
NCI-H226 = test system: NCI-H226
SR = test system: SR

Measured: GI50

Nc1ncnc2c1ccn2C/C=C/CO
inactive: 786-0 > 100 µM | A498 > 100 µM | A549 > 100 µM | CAKI-1 > 100 µM | EKVX > 100 µM | HOP-92 > 100 µM | MDA-MB-231 > 100 µM | NCI-H460 > 100 µM | NCI-H522 > 100 µM | OVCAR-4 > 100 µM | RXF 393 > 100 µM | SF-539 > 100 µM | SK-MEL-5 > 100 µM | SK-OV-3 > 100 µM | SN12C > 100 µM | TK-10 > 100 µM | UACC-257 > 100 µM

O=C(/C=C\c1ccccc1)Oc1ccc(/C=C2\CCCCC2=O)cc1
inactive: 786-0 37.4 µM | A498 > 100 µM | A549 46.6 µM | CAKI-1 24.3 µM | EKVX 57.1 µM | HOP-92 69 µM | MDA-MB-231 41.6 µM | NCI-H460 73.5 µM | NCI-H522 48 µM | OVCAR-4 > 100 µM | SF-539 28.7 µM | SK-MEL-5 18.9 µM | SN12C 55.3 µM | TK-10 15.1 µM | UACC-257 16.6 µM

CCOC(=O)CCC(NC(=O)c1ccc(OCc2ccc3nc(OC)c(OC)nc3c2)cc1)C(=O)OCC (stereo not drawn)
inactive: 786-0 > 100 µM | A498 71 µM | A549 > 100 µM | CAKI-1 > 100 µM | HOP-92 40.9 µM | NCI-H226 > 100 µM | NCI-H460 22.6 µM | NCI-H522 24.7 µM | RXF 393 25.9 µM | SF-539 57.3 µM | SK-MEL-5 38.4 µM | SK-OV-3 > 100 µM | SN12C 45.3 µM | SR 45.1 µM | TK-10 35.2 µM | UACC-257 29.1 µM

CC(C)(C)OC(=O)NCCCC(=O)NC1(c2cc3ccccc3s2)CCCCC1
inactive: 786-0 16.9 µM | A498 17.6 µM | A549 25.6 µM | CAKI-1 22.1 µM | EKVX 8.26 µM | HOP-92 12.9 µM | NCI-H460 17 µM | NCI-H522 13.1 µM | OVCAR-4 20.5 µM | RXF 393 9.42 µM | SF-539 15.5 µM | SK-MEL-5 5.89 µM | SK-OV-3 29.6 µM | SN12C 17.5 µM | SR 12.6 µM | TK-10 29 µM | UACC-257 13.6 µM

Cc1cn(C2CC(OC(=O)c3ccc(Cl)cc3)C(COC(=O)c3ccc(Cl)cc3)O2)c(=O)[nH]c1=O (stereo not drawn)
inactive: 786-0 > 100 µM | A549 > 100 µM | CAKI-1 > 100 µM | EKVX > 100 µM | HOP-92 > 100 µM | NCI-H226 > 100 µM | NCI-H460 > 100 µM | NCI-H522 > 100 µM | OVCAR-4 > 100 µM | SK-MEL-5 > 100 µM | SK-OV-3 > 100 µM | SN12C > 100 µM | SR > 100 µM | TK-10 > 100 µM | UACC-257 > 100 µM

O=C(c1ccc(Cl)cc1)N(C(=S)OCCOc1ccccc1)c1ccccc1
inactive: 786-0 18.7 µM | A498 14.9 µM | A549 16.3 µM | CAKI-1 17.4 µM | EKVX 20.1 µM | HOP-92 3.34 µM | MDA-MB-231 23.1 µM | NCI-H460 23.2 µM | NCI-H522 19.1 µM | OVCAR-4 18.6 µM | RXF 393 18.6 µM | SF-539 18.9 µM | SK-OV-3 36.1 µM | SN12C 19.3 µM | TK-10 29.4 µM | UACC-257 18.7 µM

COc1ccc(OCC(=N/NC(=O)c2ccncc2)/N=C/c2cccnc2)cc1
inactive: 786-0 > 100 µM | A498 65.3 µM | A549 92.9 µM | CAKI-1 > 100 µM | EKVX > 100 µM | MDA-MB-231 > 100 µM | NCI-H226 61.1 µM | NCI-H460 > 100 µM | NCI-H522 13.1 µM | OVCAR-4 96.6 µM | RXF 393 35.8 µM | SF-539 64.3 µM | SK-OV-3 > 100 µM | SN12C > 100 µM | TK-10 > 100 µM | UACC-257 > 100 µM

O=C(c1ccco1)N1CCCN(C(=O)c2ccco2)C1=S
inactive: 786-0 > 100 µM | A498 > 100 µM | CAKI-1 > 100 µM | EKVX 2.32 µM | MDA-MB-231 > 100 µM | NCI-H226 36.4 µM | NCI-H460 > 100 µM | RXF 393 39.6 µM | SF-539 29.4 µM | SK-MEL-5 > 100 µM | SK-OV-3 > 100 µM | SN12C > 100 µM | TK-10 > 100 µM | UACC-257 > 100 µM

COc1ccc(/C=C2\C(=O)Nc3ccccc32)cc1OC
inactive: 786-0 33.1 µM | A498 > 100 µM | A549 > 100 µM | CAKI-1 > 100 µM | EKVX > 100 µM | HOP-92 44.6 µM | NCI-H226 > 100 µM | NCI-H460 78.9 µM | NCI-H522 79.3 µM | OVCAR-4 97.3 µM | RXF 393 > 100 µM | SF-539 40.6 µM | SK-MEL-5 64.4 µM | SK-OV-3 32 µM | SN12C > 100 µM | TK-10 > 100 µM | UACC-257 > 100 µM
